Experimental data as given in patent US9611278B2 (Merck Sharp & Dohme Corp., priority 2013, dated 2017).

Key:
[1] = target: T1, sGC α1/β1 heterodimer stably expressed in CHO-K1 cells (CHO-K1/sGC) (Homo sapiens, UniProt Q02108+Q02153); assay: Cell-based sGC Functional Assay (CASA Assay); settings: for Emax: CHO-K1, activation as percentage of maximum cGMP production of Compound A (set to 100%), read-out: % Act.; for EC50: inflection point of cGMP generation in CHO-K1/sGC cells, 4P fit, 1 hr at 37° C., read-out: IP
T1 construct: expressed in transfected cells
T1 sequence (Q02108 1-690): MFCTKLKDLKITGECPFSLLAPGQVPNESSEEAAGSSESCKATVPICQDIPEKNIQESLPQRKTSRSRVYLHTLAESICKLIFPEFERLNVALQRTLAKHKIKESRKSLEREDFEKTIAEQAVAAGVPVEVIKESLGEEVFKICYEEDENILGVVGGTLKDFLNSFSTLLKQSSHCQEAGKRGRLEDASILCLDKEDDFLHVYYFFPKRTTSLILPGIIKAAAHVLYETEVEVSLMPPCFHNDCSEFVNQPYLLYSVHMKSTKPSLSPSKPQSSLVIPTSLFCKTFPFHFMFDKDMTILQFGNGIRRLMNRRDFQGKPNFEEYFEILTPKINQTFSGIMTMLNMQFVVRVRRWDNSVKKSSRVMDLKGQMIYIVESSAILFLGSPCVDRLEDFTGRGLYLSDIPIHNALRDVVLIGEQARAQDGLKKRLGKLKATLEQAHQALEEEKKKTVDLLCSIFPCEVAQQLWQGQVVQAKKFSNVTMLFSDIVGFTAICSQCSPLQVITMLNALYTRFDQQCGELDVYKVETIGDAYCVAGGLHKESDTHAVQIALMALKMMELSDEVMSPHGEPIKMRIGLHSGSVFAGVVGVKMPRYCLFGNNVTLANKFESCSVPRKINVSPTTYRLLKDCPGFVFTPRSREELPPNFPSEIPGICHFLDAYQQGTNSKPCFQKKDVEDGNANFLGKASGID
T1 sequence (Q02153 1-619): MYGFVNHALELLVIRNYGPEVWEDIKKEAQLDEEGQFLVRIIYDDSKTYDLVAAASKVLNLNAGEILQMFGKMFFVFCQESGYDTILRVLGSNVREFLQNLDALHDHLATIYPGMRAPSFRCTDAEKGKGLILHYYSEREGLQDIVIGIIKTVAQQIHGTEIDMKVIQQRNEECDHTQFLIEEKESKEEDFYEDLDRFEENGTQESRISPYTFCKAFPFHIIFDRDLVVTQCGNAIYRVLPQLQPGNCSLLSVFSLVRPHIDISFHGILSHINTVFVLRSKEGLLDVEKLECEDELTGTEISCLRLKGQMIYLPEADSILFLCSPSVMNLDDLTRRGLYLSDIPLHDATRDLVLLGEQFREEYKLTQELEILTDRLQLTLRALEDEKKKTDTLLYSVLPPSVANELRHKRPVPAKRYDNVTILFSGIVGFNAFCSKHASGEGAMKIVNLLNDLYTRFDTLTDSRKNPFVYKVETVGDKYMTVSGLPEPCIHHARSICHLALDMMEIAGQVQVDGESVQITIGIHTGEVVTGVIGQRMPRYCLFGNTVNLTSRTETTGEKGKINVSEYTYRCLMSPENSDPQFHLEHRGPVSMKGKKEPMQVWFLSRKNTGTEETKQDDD
Summary of the method: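 CHO-K1 cells stably expressing human sGC α1/β1 were incubated with compound for 1 h at 37 °C in buffer with 0.5 mM IBMX and 2.5% DMSO, with or without 1 μM DETA-NO. Intracellular cGMP was read by HTRF and expressed as percentage of maximal activation by reference activator Compound A. Values came from a 4-parameter fit.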

[2] = system: Spontaneously hypertensive rats (SHR); assay: Acute Efficacy in Spontaneously Hypertensive Rats (SHR); type: in vivo, rat; settings: single oral dose
Description: Spontaneously hypertensive rats (SHR, male, Charles River) were implanted with DSI TA11PA-C40 telemetry device (Data Sciences, Inc., St. Paul, Minn.) under isoflurane or ketamine/metomidine anesthesia. The telemetry unit catheter was inserted into the descending aorta via the femoral artery and the telemetry device was implanted subcutaneously in the left flank area. Animals were allowed to recover from surgery for 14 days before the start of any studies. Blood pressure, heart rate, and activity signals from conscious, freely moving rats were recorded continuously for 30 seconds every 10 min. On the day prior to administration of compound, a single oral dose of vehicle (10% transcutol/20% Cremophor/70% water) was administered to all animals to establish baseline control data. The blood pressure lowering efficacy of compound (PO) or vehicle was evaluated following a single oral gavage. Data were collected as hourly averages, and changes in blood pressure were calculated by subtracting control baseline data on an hourly basis. Animals were maintained on normal diet with a 12 hour light-dark cycle.
Maximum peak decreases of systolic blood pressure (SBP) in SHR at a particular P.O. dose (mpk milligrams per kilogram) for the following representative compounds are provided in Table 9. Category A=SBP in SHRs <15 mmHg; Category B=SBP in SHRs 15-25 mmHg; Category C=SBP in SHRs >25 mmHg

Row | SMILES | Emax [1] [%] | EC50 [1] [nM] | Category: maximum peak decrease of systolic blood pressure (SBP) in SHR ([2]; P.O. 1 mpk) | Category: maximum peak decrease of systolic blood pressure (SBP) in SHR ([2]; P.O. 0.3 mpk) | Category: maximum peak decrease of systolic blood pressure (SBP) in SHR ([2]; P.O. 3 mpk)
1 | [2H]C([2H])([2H])n1ncc2c(-c3nc(N)c4c(n3)NC(=O)C4(c3cn(C)nn3)C3CC3)nc(CCC(F)(F)C(F)(F)F)nc21 (single isomer, unassigned) [Example 54, 4-Amino-5-cyclopropyl-5-(1-methyl-1H-1,2,3-triazol-4-yl)-2-(1-(methyl-d3)-6-(3,3,4,4,4-pentafluorobutyl)-1H-pyrazolo[3,4-d]pyrimidin-4-yl)-5,7-dihydro-6H-pyrrolo[2,3-d]pyrimidin-6-one] | 93 | 229 | B (Category B=SBP in SHRs 15-25 mmHg) | – | –
2 | Cn1cc(C2(C3CC3)C(=O)Nc3nc(-c4nc(CCC(F)(F)C(F)(F)F)nc5c4cnn5C)nc(N)c32)nn1 (single isomer, unassigned) [Example 55, 4-Amino-5-cyclopropyl-5-(1-methyl-1H-1,2,3-triazol-4-yl)-2-(1-methyl-6-(3,3,4,4,4-pentafluorobutyl)-1H-pyrazolo[3,4-d]pyrimidin-4-yl)-5,7-dihydro-6H-pyrrolo[2,3-d]pyrimidin-6-one] | 118 | 251 | B (Category B=SBP in SHRs 15-25 mmHg) | – | –
3 | CC(C)n1cc(C2(C)C(=O)Nc3nc(-c4nc(CCC(F)(F)C(F)(F)F)nc5c4cnn5C)nc(N)c32)nn1 (single isomer, unassigned) [Example 56, 4-Amino-5-(1-isopropyl-1H-1,2,3-triazol-4-yl)-5-methyl-2-(1-methyl-6-(3,3,4,4,4-pentafluorobutyl)-1H-pyrazolo[3,4-d]pyrimidin-4-yl)-5,7-dihydro-6H-pyrrolo[2,3-d]pyrimidin-6-one] | 126 | 1020 | C (Category C=SBP in SHRs >25 mmHg) | – | –
4 | CCn1cc(C2(CC)C(=O)Nc3nc(-c4nc(CCC(F)(F)C(F)(F)F)nc5c4cnn5C)nc(N)c32)nn1 (single isomer, unassigned) [Example 66, 4-Amino-5-ethyl-5-(1-ethyl-1H-1,2,3-triazol-4-yl)-2-(1-methyl-6-(3,3,4,4,4-pentafluorobutyl)-1H-pyrazolo[3,4-d]pyrimidin-4-yl)-5,7-dihydro-6H-pyrrolo[2,3-d]pyrimidin-6-one] | 108 | 327 | B (Category B=SBP in SHRs 15-25 mmHg) | – | –
5 | CCn1cc(C2(C)C(=O)Nc3nc(-c4nc(CCC(F)(F)C(F)(F)F)nc5c4cnn5C)nc(N)c32)nn1 (single isomer, unassigned) [Example 69, 4-Amino-5-(1-ethyl-1H-1,2,3-triazol-4-yl)-5-methyl-2-(1-methyl-6-(3,3,4,4,4-pentafluorobutyl)-1H-pyrazolo[3,4-d]pyrimidin-4-yl)-5,7-dihydro-6H-pyrrolo[2,3-d]pyrimidin-6-one] | 105 | 259 | C (Category C=SBP in SHRs >25 mmHg) | – | –
6 | Cn1ncc2c(-c3nc(N)c4c(n3)NC(=O)C4(C)n3cnnn3)nc(CCC(F)(F)C(F)(F)F)nc21 (single isomer, unassigned) [Example 84, 4-Amino-5-methyl-2-(1-methyl-6-(3,3,4,4,4-pentafluorobutyl)-1H-pyrazolo[3,4-d]pyrimidin-4-yl)-5-(1H-tetrazol-1-yl)-5,7-dihydro-6H-pyrrolo[2,3-d]pyrimidin-6-one] | 111 | 365 | A (Category A=SBP in SHRs <15 mmHg) | – | –
7 | Cn1ncc2c(-c3nc(N)c4c(n3)NC(=O)C4(C)c3ccc(F)cn3)nc(CCC(F)(F)C(F)(F)F)nc21 (stereo not drawn) [Example 1, 4-Amino-5-(5-fluoropyridin-2-yl)-5-methyl-2-(1-methyl-6-(3,3,4,4,4-pentafluorobutyl)-1H-pyrazolo[3,4-d]pyrimidin-4-yl)-5H-pyrrolo[2,3-d]pyrimidin-6(7H)-one] | 123 | 55 | – | C (Category C=SBP in SHRs >25 mmHg) | –
8 | Cn1ncc2c(-c3nc(N)c4c(n3)NC(=O)C4(C)c3ccc(F)cn3)nc(CC3CC(F)(F)C3)nc21 (stereo not drawn) [Example 3, 4-Amino-2-(6-((3,3-difluorocyclobutyl)methyl)-1-methyl-1H-pyrazolo[3,4-d]pyrimidin-4-yl)-5-(5-fluoropyridin-2-yl)-5-methyl-5,7-dihydro-6H-pyrrolo[2,3-d]pyrimidin-6-one] | 117 | 104 | – | C (Category C=SBP in SHRs >25 mmHg) | –
9 | Cn1ncc2c(-c3nc(N)c4c(n3)NC(=O)C4(C)c3ccc(F)cn3)nc(CCCC(F)(F)F)nc21 (stereo not drawn) [Example 4, 4-Amino-5-(5-fluoropyridin-2-yl)-5-methyl-2-(1-methyl-6-(4,4,4-trifluorobutyl)-1H-pyrazolo[3,4-d]pyrimidin-4-yl)-5H-pyrrolo[2,3-d]pyrimidin-6(7H)-one] | 115 | 54 | – | B (Category B=SBP in SHRs 15-25 mmHg) | –
10 | [2H]C([2H])([2H])n1ncc2c(-c3nc(N)c4c(n3)NC(=O)C4(C)c3noc(C)n3)nc(CCC(F)(F)C(F)(F)F)nc21 (stereo not drawn) [Example 19, 4-Amino-5-methyl-5-(5-methyl-1,2,4-oxadiazol-3-yl)-2-(1-(methyl-d3)-6-(3,3,4,4,4-pentafluorobutyl)-1H-pyrazolo[3,4-d]pyrimidin-4-yl)-5,7-dihydro-6H-pyrrolo[2,3-d]pyrimidin-6-one] | 157 | 225 | C (Category C=SBP in SHRs >25 mmHg) | – | –
11 | [2H]C([2H])([2H])n1ncc2c(-c3nc(N)c4c(n3)NC(=O)C4(c3nnnn3C)C3CC3)nc(CCC(F)(F)C(F)(F)F)nc21 (stereo not drawn) [Example 25, 4-Amino-5-cyclopropyl-5-(1-methyl-1H-tetrazol-5-yl)-2-(1-(methyl-d3)-6-(3,3,4,4,4-pentafluorobutyl)-1H-pyrazolo[3,4-d]pyrimidin-4-yl)-5,7-dihydro-6H-pyrrolo[2,3-d]pyrimidin-6-one] | 93 | 991 | – | – | C (Category C=SBP in SHRs >25 mmHg)
12 | [2H]C([2H])([2H])n1ncc2c(-c3nc(N)c4c(n3)NC(=O)C4(c3nnc(C4CC4)o3)C3CC3)nc(CCC(F)(F)C(F)(F)F)nc21 (stereo not drawn) [Example 38, 4-Amino-5-cyclopropyl-5-(5-cyclopropyl-1,3,4-oxadiazol-2-yl)-2-(1-(methyl-d3)-6-(3,3,4,4,4-pentafluorobutyl)-1H-pyrazolo[3,4-d]pyrimidin-4-yl)-5,7-dihydro-6H-pyrrolo[2,3-d]pyrimidin-6-one] | 165 | 265 | C (Category C=SBP in SHRs >25 mmHg) | – | –
